# Experiments:
# Maize = experiment: Regular maize pot experiment (potting soil); format: in vivo, maize cultivar DKC 2931; details: low phosphate, 10 μM
# Method: All Arabidopsis plant experiments were performed using the Arabidopsis thaliana Columbia-0 background. The Arabidopsis pSPX1::GUS line is described in the Plant Journal 2008, 54: 965-975. For rice, the cultivar Nipponbare was used. For maize, the cultivars DKC 2931 and B104 were used for regular pot experiments and sand-based pot experiments, respectively. For soybean, the cultivar Primus was used. […] The medium was solidified due to the addition of 0.6% Gelrite, unless stated otherwise. In case of vertical plates (root length and root hair measurements), the medium was supplied with 0.5% of sucrose and 1 μM (low phosphate, 1 μM KH2PO4, 9.9 mM KCl), 10 μM (low phosphate 10 μM KH2PO4, 9.9 mM KCl) or 1.25 mM KH2PO4 (high phosphate). Arabidopsis seeds were stratified for 2 days at 4° C. before germination. Seedlings were germinated in climate-controlled growth chambers at 22° C. under continuous light (100 μmol m^−2 s^−1). Husked rice seeds were germinated on wetted Whatman paper for 2 days at 37° C. and then transferred to Sterivent boxes or square Petri dishes with solid medium. Maize and soybean seeds were wetted 24 hours at room temperature prior to sowing in pots.
# Regular Arabidopsis, soybean and maize pot experiments used an unfertilized potting soil, which was supplemented at the start of the experiment with 50 ml H2O containing 0.25 g/l NH4NO3 and 0.44 g/l (high phosphate) or no (maize and soybean) or 0.11 g/l KH2PO (Arabidopsis) for low phosphate conditions. […] Compound concentration was 10 μM, calculated based on the total water content after watering, and was added at the start of the experiment (Arabidopsis) or once a week (maize). […] All parameters in the sand experiment, except the rate of leaf 4 (measured the first 4 days after emergence), were measured 19 days after sowing. Measurements in the pot experiments with potting soil were done after 4 weeks of growth, except for leaf 5, which was measured at 26 days. […]
# Maize B104 = experiment: Long-term maize pot experiment, B104 (PHENOVISION); format: in vivo, maize cultivar B104
# Method: Regular Arabidopsis, soybean and maize pot experiments used an unfertilized potting soil, which was supplemented at the start of the experiment with 50 ml H2O containing 0.25 g/l NH4NO3 and 0.44 g/l (high phosphate) or no (maize and soybean) or 0.11 g/l KH2PO (Arabidopsis) for low phosphate conditions. For the sand-based maize pot experiment, sand was supplemented with 50 ml H2O containing 0.25 g/l NH4NO3 and 0.38 g/l (high phosphate) or 0.02 g/l (low phosphate) KH2PO4. Potassium was balanced via addition of KCl. Compound concentration was 10 μM, calculated based on the total water content after watering, and was added at the start of the experiment (Arabidopsis) or once a week (maize). Indexed chlorophyll contents were received via a SPAD 502 Plus Chlorophyll Meter. All parameters in the sand experiment, except the rate of leaf 4 (measured the first 4 days after emergence), were measured 19 days after sowing. Measurements in the pot experiments with potting soil were done after 4 weeks of growth, except for leaf 5, which was measured at 26 days. One long-term maize pot experiment was conducted with the DKC 2931 (2.5 months) and B104 (3 months) cultivars on the PHENOVISION phenotyping platform as described in Frontiers in Plant Science 2021, 12: 640914, except that an unfertilized potting soil was used and that plants were fertilized with a low-phosphate Hoagland solution. The 2.5× overconcentrated low-phosphate Hoagland solution contained 0.034 g/l KH2PO and 200 mL of this solution was applied twice a week. 1.4 mL of a 10 mM compound solution was added each two weeks to each pot, corresponding to 9.6 mg/g nutrients. 13 plants per condition were used. During the experiment, pictures were taken twice a week for each plants from 6 different angles and the top. Pictures were used to extract the plant height and to extract the projected plant area from each side and calculate an estimated plant volume over time.
structure (smiles),measurement,setting,value
"CC1CN(CC(=O)c2c(N)n(C)c(=O)n(C)c2=O)c2ccccc2O1 (stereo not shown) [Compound 8, 6-amino-1,3-dimethyl-5-[2-(2-methyl-2,3-dihydro-1,4-benzoxazin-4-yl)acetyl]pyrimidine-2,4-dione]",Shoot weight,"Maize; 4 weeks, control 4",4.6 g
same,Plant height,"Maize; 4 weeks, control 57",60 cm
same,Leaf 5,"Maize; 26 days, control 40",48 cm
same,Plant height,"Maize B104; B104, day 15, control 230",220 mm
same,Estimated volume,"Maize B104; B104, day 15, control 311",292 cm^3
same,Plant height,"Maize B104; B104, day 19, control 246",239 mm
same,Estimated volume,"Maize B104; B104, day 19, control 465",441 cm^3
same,Plant height,"Maize B104; B104, day 22, control 291",288 mm
same,Estimated volume,"Maize B104; B104, day 22, control 548",565 cm^3
same,Plant height,"Maize B104; B104, day 26, control 351",368 mm
same,Estimated volume,"Maize B104; B104, day 26, control 623",689 cm^3
same,Plant height,"Maize B104; B104, day 27, control 416",364 mm
same,Estimated volume,"Maize B104; B104, day 27, control 637",552 cm^3
same,Plant height,"Maize B104; B104, day 29, control 412",411 mm
same,Estimated volume,"Maize B104; B104, day 29, control 788",877 cm^3
same,Plant height,"Maize B104; B104, day 33, control 424",428 mm
same,Estimated volume,"Maize B104; B104, day 33, control 1146",1368 cm^3
same,Plant height,"Maize B104; B104, day 36, control 472",485 mm
same,Estimated volume,"Maize B104; B104, day 36, control 1405",1735 cm^3
same,Plant height,"Maize B104; B104, day 40, control 507",547 mm
same,Estimated volume,"Maize B104; B104, day 40, control 1673",2117 cm^3
same,Plant height,"Maize B104; B104, day 43, control 551",587 mm
same,Estimated volume,"Maize B104; B104, day 43, control 1795",2363 cm^3
same,Plant height,"Maize B104; B104, day 47, control 609",657 mm
same,Estimated volume,"Maize B104; B104, day 47, control 2268",2844 cm^3
same,Plant height,"Maize B104; B104, day 50, control 633",692 mm
same,Estimated volume,"Maize B104; B104, day 50, control 2874",3518 cm^3
same,Plant height,"Maize B104; B104, day 54, control 544",564 mm
same,Estimated volume,"Maize B104; B104, day 54, control 3143",3857 cm^3
same,Plant height,"Maize B104; B104, day 57, control 572",569 mm
same,Estimated volume,"Maize B104; B104, day 57, control 3365",4216 cm^3
same,Plant height,"Maize B104; B104, day 61, control 572",609 mm
same,Estimated volume,"Maize B104; B104, day 61, control 3936",5052 cm^3
same,Plant height,"Maize B104; B104, day 63, control 514",529 mm
same,Estimated volume,"Maize B104; B104, day 63, control 3808",4933 cm^3
same,Plant height,"Maize B104; B104, day 68, control 566",593 mm
same,Estimated volume,"Maize B104; B104, day 68, control 4585",5837 cm^3
same,Plant height,"Maize B104; B104, day 71, control 611",629 mm
same,Estimated volume,"Maize B104; B104, day 71, control 4957",5962 cm^3
same,Plant height,"Maize B104; B104, day 75, control 569",627 mm
same,Estimated volume,"Maize B104; B104, day 75, control 5016",6099 cm^3
same,Plant height,"Maize B104; B104, day 78, control 590",662 mm
same,Estimated volume,"Maize B104; B104, day 78, control 5551",6540 cm^3
same,Plant height,"Maize B104; B104, day 82, control 626",685 mm
same,Estimated volume,"Maize B104; B104, day 82, control 5788",6751 cm^3
same,Plant height,"Maize B104; B104, day 85, control 677",707 mm
same,Estimated volume,"Maize B104; B104, day 85, control 5957",6623 cm^3
same,Plant height,"Maize B104; B104, day 89, control 697",733 mm
same,Estimated volume,"Maize B104; B104, day 89, control 5717",6434 cm^3
same,Average number of ears,"Maize B104; Maize pot long term B104, 3 months, low phosphate, control 0.3",0.7
same,Shoot weight,"Maize B104; Maize pot long term B104, low phosphate, control 28",32 g
same,Leaf 6,"Maize B104; Maize pot long term B104, low phosphate, control 48",50 cm
